Legend:
[1] = tested on: Angiotensin II (rabbit aortic vessel); assay: Angiotensin II-antagonizing activity (rabbit aortic vessel); conditions: AII 4×10^-9 M, 15 min treatment
Method: Angiotensin II (briefly, AII)-antagonizing activity of the compound (I) of this invention (rabbit aortic vessel)
The method of preparing the aortic vessel specimens and the reaction conditions employed were as described in European Journal of Pharmacology 18, 316 (1972). AII was used in a concentration of 4×10^-9 M, and the change in isometric tension of the untreated vessel specimen was measured as control. As a test, the vessel was treated with the test compound for 15 minutes and a similar determination was made. The two results were compared and the inhibition rate was calculated by means of the following formula.
Inhibition rate (%) [formula]

dogs = assay: Diuretic action in dogs (method of W. L. Lipschitz); assay type: in vivo; conditions: dog, n = 3, control group = 1.00
Method: (§1) The test was conducted in rats and dogs, in accordance with the method of W. L. Lipschitz. The numerals in the table denote the values for the treated groups with the value for control group being taken as 1.00. [formula]

rats = assay: Diuretic action in rats (method of W. L. Lipschitz); assay type: in vivo; conditions: rat, 30 mg/kg P.O., n = 6; control group = 1.00
Method: as §1

[2] = tested on: dogs with renal hypertension; assay: Antihypertensive action in dogs with renal hypertension; assay type: in vivo, beagle dog; conditions: dose 10 mg, oral; for Diastolic blood pressure after 1 hr. / Systolic blood pressure after 1 hr.: 1 hr after administration; for Diastolic blood pressure after 2 hrs. / Systolic blood pressure after 2 hrs.: 2 hrs after administration; for Diastolic blood pressure after 4 hrs. / Systolic blood pressure after 4 hrs.: 4 hrs after administration; for Diastolic blood pressure after 8 hrs. / Systolic blood pressure after 8 hrs.: 8 hrs after administration; for Diastolic blood pressure before administration / Systolic blood pressure before administration: before administration (baseline)
Description: Antihypertensive action in dogs with renal hypertension
Male adult beagle dogs were laparotomized under pentobarbital anesthesia and the left renal artery was constricted with a silver clip so as to reduce the renal blood flow to about 30%. After the operation, the animals were kept for at least 2 months and the individuals having a systolic pressure of at least about 180 mmHg were used in the test. […] Blood pressure determinations were made using a plethysmograph (Narco, DE-300). Each drug was sealed in a gelatin capsule and administered by the oral route. The blood pressure was monitored up to 8 hours after administration.

## O=C(O)Cc1c(Cl)nc(-c2ccccc2)n1Cc1ccc(O)cc1 [4-Chloro-1-(4-hydroxybenzyl)-2-phenylimidazole-5-acetic acid, reference compound]
[1]; concentration of drug 10^-5 M
  Inhibition rate (%): 46%

## COc1ccc(Cn2c(-c3ccccc3)nc(Cl)c2CC(=O)O)cc1C [4-Chloro-1-(4-methoxy-3-methylbenzyl)-2-phenylimidazole-5-acetic acid, reference compound]
dogs; 3 mg/kg P.O.
  Diuretic action UK V: 0.86
  Diuretic action UNa V: 1.10
  Diuretic action UV: 1.20
dogs; 30 mg/kg P.O.
  Diuretic action UK V: 2.53
  Diuretic action UNa V: 1.73
  Diuretic action UV: 1.67
rats
  Diuretic action UK V: 3.33
  Diuretic action UNa V: 6.36
  Diuretic action UV: 8.25
[2]
  Diastolic blood pressure after 1 hr.: 113 ± 6 mmHg
  Systolic blood pressure after 1 hr.: 185 ± 5 mmHg
  Diastolic blood pressure after 2 hrs.: 116 ± 7 mmHg
  Systolic blood pressure after 2 hrs.: 181 ± 6 mmHg
  Diastolic blood pressure after 4 hrs.: 115 ± 4 mmHg
  Systolic blood pressure after 4 hrs.: 181 ± 2 mmHg
  Diastolic blood pressure after 8 hrs.: 115 ± 5 mmHg
  Systolic blood pressure after 8 hrs.: 188 ± 5 mmHg
  Diastolic blood pressure before administration: 123 ± 6 mmHg
  Systolic blood pressure before administration: 189 ± 2 mmHg

## Cc1cc(Cn2c(-c3ccccc3)nc(Cl)c2CC(=O)O)ccc1O [Example 1, 4-chloro-1-(4-hydroxy-3-methylbenzyl)-2-phenylimidazole-5-acetic acid]
dogs; 3 mg/kg P.O.
  Diuretic action UK V: 2.20
  Diuretic action UNa V: 2.97
  Diuretic action UV: 3.41
dogs; 30 mg/kg P.O.
  Diuretic action UK V: 4.88
  Diuretic action UNa V: 4.24
  Diuretic action UV: 5.11
[2]
  Diastolic blood pressure after 1 hr.: 123 ± 4 mmHg
  Systolic blood pressure after 1 hr.: 189 ± 5 mmHg
  Diastolic blood pressure after 2 hrs.: 93 ± 7 mmHg
  Systolic blood pressure after 2 hrs.: 165 ± 6 mmHg
  Diastolic blood pressure after 4 hrs.: 89 ± 7 mmHg
  Systolic blood pressure after 4 hrs.: 155 ± 8 mmHg
  Diastolic blood pressure after 8 hrs.: 110 ± 8 mmHg
  Systolic blood pressure after 8 hrs.: 167 ± 8 mmHg
  Diastolic blood pressure before administration: 124 ± 2 mmHg
  Systolic blood pressure before administration: 201 ± 5 mmHg
[1]; concentration of drug 10^-5 M
  Inhibition rate (%): 100%
[1]; concentration of drug 10^-6 M
  Inhibition rate (%): 75%

## CC(=O)Oc1ccc(Cn2c(-c3ccccc3)nc(Cl)c2CC(=O)O)cc1C [Ref. Example 3, 4-chloro-1-(4-acetoxy-3-methylbenzyl)-2-phenylimidazole-5-acetic acid]
rats
  Diuretic action UK V: 2.92
  Diuretic action UNa V: 6.54
  Diuretic action UV: 8.22

## CCCC(=O)Oc1ccc(Cn2c(-c3ccccc3)nc(Cl)c2CC(=O)O)cc1C [Ref. Example 4, 4-chloro-1-(4-n-butyryloxy-3-methylbenzyl)-2-phenylimidazole-5-acetic acid]
rats
  Diuretic action UK V: 2.80
  Diuretic action UNa V: 5.82
  Diuretic action UV: 6.69

Source: patent US4582847A, “4-chloro-2-phenylimidazole-5-acetic acid derivatives and use as diuretics and hypotensives” (Takeda Chemical Industries, Ltd., priority 1983, dated 1986)
